Tests used:
[1] = tested on: HFD-fed Swiss albino mice; assay: Systemic cholesterol monitoring assay in HFD-fed mice, 90-day oral dosing; format: in vivo; settings: 90 days; for reduction of HFD-induced hypercholesterolemia relative to the control: female; for plasma cholesterol relative reduction versus the control group: male
Description: Plasmatic cholesterol concentrations in mice were determined using a total cholesterol kit (EnzyChrom^TM Cholesterol Assay Kit ECCH-100 BioAssay Systems, Hayward, CA, USA), adhering to the manufacturer’s instructions. Colorimetric quantitation was measured at 340 nm using a Synergy 2 microplate reader (BioTek Instruments Inc., Winooski, VT, USA). Blood was collected through tail vein extraction on the day before treatment, day 35, and day 90. Blood was quickly collected into green-topped Lithium Heparin 400 µL blood collection tubes (BD Microtainer REF# 365965 Becton, Dickinson and Company, Franklin Lakes, NJ, USA), centrifuged at 13,000× g for 10 min, and the upper layer of plasma was transferred to 1.5 mL Eppendorf tubes (Thermo Fisher Scientific, Waltham, MA, USA) and stored at −20 °C until analysis.
For the 90-day daily oral dosing sub-chronic toxicity study, twenty male and twenty female healthy 8-week-old Swiss albino mice were randomly selected and randomized to […] (n = 5/sex/group). Mice received free access to purified drinking water and high-fat diet (HFD) pelleted rodent chow (11.4% total fat, no. 7004, Envigo/Teklad, Madison, WI, USA) until the day before sacrifice, at which time they were fasted for 8 h and allowed only free access to drinking water. Daily doses of PsA (10, 40, 80 mg/kg body weight) were administered to the mice formulated in <5% DMSO (Mediatech Inc., Manassas, VA, USA) and <0.2% Tween 80 (Croda Inc., Princeton, NJ, USA) at a volume not exceeding 1% of body weight by metal oral gavage (2 mm diameter with stainless steel bite protector, 18-gauge, 3.81 cm long). […] The mice were observed weekly until the completion of the study. The body weights of the mice were measured in grams using a Scout^TM Pro (Ohaus Corp., Pine Brook, NJ, USA) on day 0, 4, 8, 11, 14, 21, 28, 35, 42, 49, 56, 63, 70, 77, 83, and 90 after initial treatment. On day 90, all mice were anesthetized using isoflurane (USP-vaporizer method, Matrix VIP-3000, Covetrus, Dublin, OH, USA, exposure of animals in an anesthesia chamber at 3% isoflurane vaporization rate. Exposure time 2 min). Mice were then euthanized by cervical dislocation according to the 2020 AVMA Guidelines on Euthanasia and dissected. Mice organs (brain, liver, kidney, heart, lungs, spleen) were excised and weighed for histopathological examination. The organs were stored in 10% neutral buffered formalin (Avantor Science Central, Allentown, PA, USA) for 24 h and then transferred to 70% ethanol (AAPER ALCOHOL, Shelbyville, KY, USA). This study was performed following the OECD guideline 408 for the testing of chemicals.

Swiss albino mice = tested on: Swiss albino mice; design: method as in PMID 36771126; settings: cited from earlier work

## CC/C=C\[C@H](O)[C@H](O)C1=C(C)C(=O)[C@]2(O1)C(=O)N[C@@](OC)(C(=O)c1ccccc1)[C@@H]2O [PsA, pseurotin A]
[1]; 10 mg/kg daily oral
  reduction of HFD-induced hypercholesterolemia relative to the control: −80.7%
  plasma cholesterol relative reduction versus the control group: −96.1%
[1]; 40 mg/kg daily oral
  reduction of HFD-induced hypercholesterolemia relative to the control: −92.9%
  plasma cholesterol relative reduction versus the control group: −107.3%
[1]; 80 mg/kg daily oral
  reduction of HFD-induced hypercholesterolemia relative to the control: −85.5%
  plasma cholesterol relative reduction versus the control group: −116.7%
Swiss albino mice; 500 mg/kg female dosing group, oral gavage, after 14 days
  decrease in body weight: 45%
Swiss albino mice; 14-day acute toxicity, 10, 250 and 500 mg/kg oral gavage
  major organ toxicity (liver, lung, heart, brain, kidneys): neither major organ toxicity
Swiss albino mice; Up-and-Down acute toxicity procedure, oral, male and female Swiss albino mice
  LD50: > 550 mg/kg

Reference: PMC12525728, “Safety, Pharmacokinetics, Translational and Molecular Mechanistic Insights on the Prostate Cancer Recurrence Suppressor Pseurotin A” (Molecules, 2025)
